Experimental data as given in article PMC4834188, “Benzyl-1,2,4-triazoles as CB1 Cannabinoid Receptor Ligands: Preparation and In Vitro Pharmacological Evaluation” (International Journal of Medicinal Chemistry, 2016).
“Also recorded” adds a separate entry of the source.

How the values were obtained:
CB1R [1] = molecular target: T1, CB1R (Rattus norvegicus, UniProt P20272); assay: CB1R radioligand binding assay versus [3H]-SR141716A in rat cerebellar membranes; conditions: for CB1R affinity (in words): radioligand not given; for Ki: radioligand [3H]-SR141716, mean ± standard error, three independent experiments in triplicate, read-out: K i (nM) CB1R versus [^3H]-SR141617
T1 construct: from tissue; host or cells: rat cerebellum (membranes)
Text: (§1) Radioligand Binding Assays. […] Competitive radioligand binding assays have been used to evaluate the affinity of selected synthetized triazoles to CB1R in rat cerebellar membranes.

CB1R [2] = molecular target: T1, CB1R; assay: CB1R radioligand binding assay versus [3H]-WIN552122 in rat cerebellar membranes
Text: as §1

obese animals = tested on: obese animals; design: method as in PMID 16750544, PMID 18426510, PMID 21951309; conditions: cited from earlier work

T1 sequence (P20272 whole entry): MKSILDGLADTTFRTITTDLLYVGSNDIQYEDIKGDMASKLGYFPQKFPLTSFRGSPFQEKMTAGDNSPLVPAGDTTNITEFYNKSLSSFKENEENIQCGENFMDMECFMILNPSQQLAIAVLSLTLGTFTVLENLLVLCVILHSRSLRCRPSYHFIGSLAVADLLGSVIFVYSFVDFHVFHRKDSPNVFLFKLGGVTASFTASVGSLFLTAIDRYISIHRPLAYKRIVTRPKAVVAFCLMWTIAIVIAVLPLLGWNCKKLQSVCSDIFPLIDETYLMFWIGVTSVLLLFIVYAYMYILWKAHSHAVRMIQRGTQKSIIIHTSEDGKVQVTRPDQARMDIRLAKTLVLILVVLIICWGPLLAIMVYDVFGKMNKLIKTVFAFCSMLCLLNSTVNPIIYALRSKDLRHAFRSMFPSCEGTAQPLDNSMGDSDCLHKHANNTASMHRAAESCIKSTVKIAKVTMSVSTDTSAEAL

| SMILES | CB1R affinity (in words) (CB1R [1]) | melting point [°C] | also measured |
| --- | --- | --- | --- |
| CCCCCCCc1nc(-c2ccc(Cl)cc2)nn1Cc1ccc(Cl)cc1 [Compound 11a, 1-(4-Chlorobenzyl)-3-(4-chlorophenyl)-5-heptyl-1H-1,2,4-triazole] | moderate CB1R affinity |  |  |
| CCCCCCCc1nc(-c2ccccc2)n(Cc2ccc(Cl)cc2Cl)n1 [Compound 9b, 1-(2,4-Dichloro-benzyl)-3-heptyl-5-phenyl-1H-1,2,4-triazole] |  | 70 to 73 |  |
| CCCCCCc1nc(-c2ccc(Cl)cc2)n(-c2ccc(Cl)cc2Cl)n1 [LH21, 5-(4-chlorophenyl)-1-(2,4-dichlorophenyl)-3-hexyl-1H-1,2,4-triazole, reference compound] |  |  | Ki (CB1R [1]): 856 ± 296 nM; Ki (CB1R [2]; read-out: K i (nM) CB1R versus [^3H]-WIN552122, radioligand [3H]-WIN552122, mean ± standard error, three independent experiments in triplicate): 748 ± 193 nM; antiobesity activity in in vivo assays (obese animals): exhibited antiobesity activity |
| CCCCCCCc1nc(-c2ccc(Cl)cc2)n(Cc2ccc(Cl)cc2Cl)n1 [Compound 12b, 5-(4-Chlorophenyl)-1-(2,4-dichlorobenzyl)-3-heptyl-1H-1,2,4-triazole] |  | 97 to 99 |  |
| CCCCCCCc1nc(-c2ccc(Cl)cc2)nn1Cc1ccc(Cl)cc1Cl [Compound 12a, 3-(4-Chlorophenyl)-1-(2,4-dichlorobenzyl)-5-heptyl-1H-1,2,4-triazole] | CB1R affinity in the nanomolar range; also recorded: high affinity for CB1R |  | Ki (CB1R [1]): 13.9 nM; K i (nM) CB1R versus [^3H]-WIN552122 (CB1R [2]; radioligand [3H]-WIN552122, mean ± standard error, three independent experiments in triplicate): 323 nM |
| CCCCCCCc1nc(-c2ccccc2)nn1Cc1ccccc1 [Compound 7a, 1-Benzyl-5-heptyl-3-phenyl-1H-1,2,4-triazole] | moderate CB1R affinity |  |  |
| CCCCCCCc1nc(-c2cc[n+](C)cc2)nn1Cc1ccc(Cl)cc1Cl.[I-] [Compound 18, 4-[1-(2,4-Dichlorobenzyl)-5-heptyl-1H-1,2,4-triazol-3-yl]-1-methylpyridinium Iodide] |  | 136 to 138 |  |
| CCCCCCCc1nc(-c2ccccc2)nn1Cc1ccc(Cl)cc1 [Compound 8a, 1-(4-Chlorobenzyl)-5-heptyl-3-phenyl-1H-1,2,4-triazole] | moderate CB1R affinity |  |  |
| CCCCCCCc1nc(-c2ccncc2)n(Cc2ccc(Cl)cc2Cl)n1 [Compound 15b, 4-[1-(2,4-Dichlorobenzyl)-3-heptyl-1H-1,2,4-triazol-5-yl]pyridine] |  | 104 to 105 |  |
| CCCCCCCc1nc(-c2ccc(Cl)cc2)nn1Cc1ccccc1 [Compound 10a, 1-Benzyl-3-(4-chlorophenyl)-5-heptyl-1H-1,2,4-triazole] | moderate CB1R affinity |  |  |
